Our source for the IC50 values is patent US11130778B2, “CD73 inhibitors” (ORIC Pharmaceuticals, Inc., priority 2019, dated 2021).

This experiment addresses T1, CD73 (Homo sapiens, UniProt P21589).
T1 sequence (P21589 27-549): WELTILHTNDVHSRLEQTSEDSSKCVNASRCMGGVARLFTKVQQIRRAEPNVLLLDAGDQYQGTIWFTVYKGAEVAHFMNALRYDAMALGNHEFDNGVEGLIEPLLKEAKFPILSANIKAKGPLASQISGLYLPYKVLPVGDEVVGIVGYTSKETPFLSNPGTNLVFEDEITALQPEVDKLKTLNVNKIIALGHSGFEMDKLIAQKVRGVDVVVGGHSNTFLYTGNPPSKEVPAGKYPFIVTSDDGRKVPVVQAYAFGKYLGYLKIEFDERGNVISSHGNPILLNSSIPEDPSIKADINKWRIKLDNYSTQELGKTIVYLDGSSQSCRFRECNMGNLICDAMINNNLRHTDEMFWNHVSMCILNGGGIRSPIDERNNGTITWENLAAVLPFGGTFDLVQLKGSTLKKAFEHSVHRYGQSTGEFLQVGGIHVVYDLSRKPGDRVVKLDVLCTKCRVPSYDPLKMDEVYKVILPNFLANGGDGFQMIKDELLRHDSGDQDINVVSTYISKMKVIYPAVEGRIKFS
In words: Biochemical assay of CD73 inhibition (Malachite Green). The note with it: CD73 0.3208 nM, AMP 15 μM, Tris-HCl pH 7.4, Malachite Green absorbance readout; read-out: CD73_Biochem. In short, it runs like this: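 CD73 (0.3208 nM) preincubated with compound 15 min at RT in 25 mM Tris-HCl pH 7.4, 5 mM MgCl2, 0.01% Brij-35, 0.01% BSA, then AMP (15 μM) added for 10 min at RT. Released phosphate detected by Malachite Green absorbance. IC50 from 10-point ½-log titrations starting at 100 μM, in duplicate.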
On to `C[C@H]1CCC[C@@H]1Nc1nc(Cl)nc2c1cnn2[C@@H]1O[C@H](COC(CO)(CO)P(=O)(O)O)[C@@H](O)[C@H]1O` [Example 14, (2-(((2R,3S,4R,5R)-5-(6-chloro-4-(((1S,2S)-2-methylcyclopentyl)amino)-1H-pyrazolo[3,4-d]pyrimidin-1-yl)-3,4-dihydroxytetrahydrofuran-2-yl)methoxy)-1,3-dihydroxypropan-2-yl)phosphonic acid], for which the IC50 is not above 10 nM.

Regarding `CC(C)Nc1nc(Cl)nc2c1cnn2[C@@H]1O[C@H](CO[C@@](CO)(Cc2nn[nH]n2)P(=O)(O)O)[C@@H](O)[C@H]1O` [Example 28, ((S)-2-(((2R,3S,4R,5R)-5-(6-chloro-4-(isopropylamino)-1H-pyrazolo[3,4-d]pyrimidin-1-yl)-3,4-dihydroxytetrahydrofuran-2-yl)methoxy)-1-hydroxy-3-(2H-tetrazol-5-yl)propan-2-yl)phosphonic acid], the IC50 fell in the range of 10 to 100 nM.

As for `COC[C@](OC[C@H]1O[C@@H](n2ncc3c(NC4CCCC4)nc(Cl)nc32)[C@H](O)[C@@H]1O)(C(=O)NO)P(=O)(O)O` [Example 36, ((R)-2-(((2R,3S,4R,5R)-5-(6-chloro-4-(cyclopentylamino)-1H-pyrazolo[3,4-d]pyrimidin-1-yl)-3,4-dihydroxytetrahydrofuran-2-yl)methoxy)-1-(hydroxyamino)-3-methoxy-1-oxopropan-2-yl)phosphonic acid], the IC50 is not above 10 nM.

In the case of `O=P(O)(O)[C@](CO)(Cc1nn[nH]n1)OC[C@H]1O[C@@H](n2ncc3c(N[C@@H]4CCc5ccccc54)nc(Cl)nc32)[C@H](O)[C@@H]1O` [Example 47], the IC50 fell in the range of 10 to 100 nM.

Turning to `O=P(O)(O)C(CO)(CCc1nnn[nH]1)OC[C@H]1O[C@@H](n2ncc3c(NC4CCCC4)nc(Cl)nc32)[C@H](O)[C@@H]1O` (stereo partly drawn) [Example 18, (2-(((2R,3S,4R,5R)-5-(6-chloro-4-(cyclopentylamino)-1H-pyrazolo[3,4-d]pyrirnidin-1-yl)-3,4-dihydroxytetrahydrofuran-2-yl)methoxy)-1-hydroxy-4-(1H-tetrazol-5-yl)butan-2-yl)phosphonic acid], the IC50 was not above 10 nM.

As for `O=P(O)(O)C(COCc1nnn[nH]1)(Cc1nnn[nH]1)OC[C@H]1O[C@@H](n2ncc3c(NC4CCCC4)nc(Cl)nc32)[C@H](O)[C@@H]1O` (stereo in doubt) [Example 41, ((S)-1-((1H-tetrazol-5-yl)methoxy)-2-(((2R,3S,4R,5R)-5-(6-chloro-4-(cyclopentylamino)-1H-pyrazolo[3,4-d]pyrimidin-1-yl)-3,4-dihydroxytetrahydrofuran-2-yl)methoxy)-3-(1H-tetrazol-5-yl)propan-2-yl)phosphonic acid], the IC50 is not above 10 nM.

With `O=P(O)(O)[C@@](CO)(Cc1nn[nH]n1)OC[C@H]1O[C@@H](n2ncc3c(NC4CCCC4)nc(C#CC4CC4)nc32)[C@H](O)[C@@H]1O` [Example 50, ((R)-2-(((2R,3S,4R,5R)-5-(4-(cyclopentylamino)-6-(cyclopropylethynyl)-1H-pyrazolo[3,4-d]pyrimidin-1-yl)-3,4-dihydroxytetrahydrofuran-2-yl)methoxy)-1-hydroxy-3-(2H-tetrazol-5-yl)propan-2-yl)phosphonic acid], the IC50 was not above 10 nM.
